Here are results for four molecules from patent publication US5955082A, “Insecticidal factor from field peas” (Her Majesty the Queen in right of Canada, as represented by …, priority 1997, dated 1999).

One assay has as its system rice weevil. Description: Flour disk feeding bioassay. In kind it is in vivo, Sitophilus oryzae (L.). On the procedure: The rice weevil [Sitophilus oryzae (L.)] was used for all bioassays. One ml of an aqueous solution containing test material was mixed with 200 mg wheat flour. Distilled water was used as a control. Approximately 100 μl of the stirred suspension were removed and placed in the bottom of a polystyrene Petri dish, and allowed to air dry overnight at room temperature to produce the flour disks. The disks were equilibrated at 30±1° C. and 70±5% r.h. for 24 hr to stabilize the moisture content. Individual weighed disks and 5 adult beetles (1 to 7 days old, starved for 24 hrs before use) were transferred to petri dishes and kept at 30±1° C. and 70±5% r.h. for 4 days (5 replicates) before the remains of the flour disk were weighed.
Saponins, characterized by their bitter taste, foaming in aqueous solutions and haemolytic activity, are a diverse group of secondary plant metabolites containing a carbohydrate moiety (mono- or oligosaccharide) attached to either a steroid (C27) or a triterpenoid (C30). Saponins are reported to have insecticidal activity. Saponin extractions were prepared from the seeds of commercial peas (Pisum sativum). Approximately 100 g seeds were milled with a Stein mill for 5 minutes and 10 g flour was extracted with 1000 ml chloroform for 16 hrs in a Soxhlet extractor to remove pigments and lipids. Three hundred mg air-dried defatted flour was refluxed for 5 min with 60 ml 80% MeOH, then transferred to a centrifuge tube with 2×5 ml 80% MeOH rinse. The slurry extracts were centrifuged at 10,000 rpm for 10 min. The pellet was dried at room temperature for testing the residual insecticidal activities and the supernatant was evaporated to 7-8 ml under reduced pressure in a rotary evaporator at 37° C. The solution and additional 3 ml distilled water rinse were applied to a reverse phase C18 cartridge (Sep Pak, C18). The column was washed with 3×5 ml 30% MeOH then eluted with 4×5 ml MeOH. The MeOH elute was evaporated to dryness in a rotary evaporator, and then dissolved in 6 ml distilled water (at a concentration equivalent to 50 mg defatted flour per ml). This extract was used for bioassay.
One ml saponin extract (50 mg equivalent/ml) was loaded on ion exchange columns (2 ml volume) with Dowex AG-SOW [H^+ ] and Dowex AG-1 [Cl^- ] respectively. The columns were eluted with 10 ml distilled water. The water elute was evaporated to dryness in a rotary evaporator, and then dissolve in 1 ml distilled water. The water fractions were used for HPLC analysis and bioassay.
The bioassays were as described in the preceding example.

For a further assay, the system named is S. oryzae. Description: Wheat flour disk feeding bioassay of lectins and trypsin inhibitors. The note with it: for Feeding Rate (% of Control): 1% w/w in wheat flour disk; for Activity against S. oryzae: native form, 1% w/w. In kind it is in vivo. How it is done: Lectins and trypsin inhibitors shown in Table 20 were assayed in their native form to determine their activity against S. oryzae in the wheat flour disk bioassay.

As to `CC1OC(OC2C(OC3C(OC4CCC5(C)C(CCC6(C)C5CC=C5C7CC(C)(C)CC(O)C7(C)CCC56C)C4(C)CO)OC(C(=O)O)C(O)C3O)OC(CO)C(O)C2O)C(O)C(O)C1O` (centres unmarked) [Soyasaponin I], the Food consumption in the assay with rice weevil (0.63 mg/g) was 0.52 mg/day/insect; in the assay on rice weevil (1.25 mg/g), 0.44 mg/day/insect; in the assay with rice weevil (2.50 mg/g), 0.43 mg/day/insect; in the assay with rice weevil (5.00 mg/g) it was 0.46 mg/day/insect; in the assay on rice weevil (10.0 mg/g), 0.51 mg/day/insect. In addition, the “Food consumption, % of control” value came to 99.8% in the assay with rice weevil (0.63 mg/g); 84.2% in the assay on rice weevil (1.25 mg/g); 82.8% in the assay with rice weevil (2.50 mg/g); 88.4% in the assay with rice weevil (5.00 mg/g); 97.9% in the assay on rice weevil (10.0 mg/g). In addition, the “Activity against the test insect” value in the assay on rice weevil (~0.6 mg/g and up to 10 mg/g) is listed as “not active”.

With Concanavalin A, in the assay on S. oryzae, the “Feeding Rate (% of Control)” value came out at 82.5% and the “Activity against S. oryzae” value is “weakly active”.

In the case of Soybean trypsin inhibitor, in the assay on S. oryzae, the “Feeding Rate (% of Control)” value came to 98.7% and the “Activity against S. oryzae” value is “inactive”.

B1: Pea lectin: pea lectin, native form (protein, UniProt P02867 31-217; P02867 218-275, looked up)
Lectin beta chain: TETTSFLITKFSPDQQNLIFQGDGYTTKEKLTLTKAVKNTVGRALYSSPIHIWDRETGNVANFVTSFTFVINAPNSYNVADGFTFFIAPVDTKPQTGGGYLGVFNSAEYDKTTQTVAVEFDTFYNAAWDPSNRDRHIGIDVNSIKSVNTKSWKLQNGEEANVVIAFNAATNVLTVSLTYPNSLEEEN
Lectin alpha chain: VTSYTLSDVVSLKDVVPEWVRIGFSATTGAEYAAHEVLSWSFHSELSGTSSSKQAADA
For the molecule B1, in the assay with S. oryzae, the “Feeding Rate (% of Control)” value is given as 71.4% and the “Activity against S. oryzae” value is on record as “weakly active”.
